{
  "source": "paper PMC9669016",
  "about": "“First-in-human phase Ia study of the PI3Kα inhibitor CYH33 in patients with solid tumors” (Nature Communications, 2022)",
  "key": {"[1]": {"system": "fasting blood glucose (FBG)", "assay": "Pharmacodynamics: fasting blood glucose (FBG) change from baseline", "type": "in vivo, human", "conditions": "Cycle 1 Day 15 (C1D15), starting at 10 mg CYH33 and peaking at 60 mg", "excerpt": "Since glucose metabolism is tightly regulated by PI3Kα[24], fasting blood glucose (FBG) levels were used as a PD marker.\nThis is a phase I clinical study (ClinicalTrials.gov identifier: NCT03544905), including a phase Ia study of oral CYH33 monotherapy in patients with advanced solid tumors, and a phase Ib study of oral CYH33 monotherapy focused on several specific tumors. Here we report the results of the phase Ia study conducted at Sun Yat-sen University Cancer Center. The phase Ia study included dose-escalation stage and dose-expansion stage. […]\nBlood samples for PK evaluation were collected at: (1) during the single dose phase: on day 1 pre-dose and 0.5, 1, 2, 4, 8, 12, 24, 36, 48, and 72 h post-dose; (2) during the continuous dose phase: C1D1/Cycle 1 Day 28 pre-dose, and 0.5, 1, 2, 3, 4, 6, 8, 12, and 24 h post-dose; and C1D8/Day 15 pre-dose. Plasma concentrations of CYH33 and I27 were analyzed using a liquid chromatography-tandem mass spectrometry (LC/MS/MS) assay (Shimadzu Corporation, LC-30AD) with a lower limit of quantification (LLOQ) of 2.585 ng/mL and 1.0 ng/mL for CYH33 and I27, respectively. […]"}, "[2]": {"system": "PI3Kβ, PI3Kδ, and PI3Kγ", "set-up": "method as in PMID 33109399", "conditions": "read-out: IC50 range; cited from earlier work"}, "[3]": {"system": "KYSE410 human esophageal cancer xenograft", "set-up": "method as in Investigator's Brochure (IB) 12", "conditions": "ref Investigator's Brochure (IB) 12, cited from earlier work; for inhibition rate (tumor growth): multiple doses"}, "[4]": {"system": "KYSE410, KYSE510, EC104, EC063, EC074 xenograft models", "set-up": "method as in Investigator's Brochure (IB) 12", "conditions": "ref Investigator's Brochure (IB) 12, cited from earlier work"}, "[5]": {"system": "human hepatocytes", "set-up": "method as in Investigator's Brochure (IB) 12", "conditions": "ref Investigator's Brochure (IB) 12; cited from earlier work"}},
  "note": "Read-outs that look alike come from different tables or passages of the source.",
  "data": [
    {"smiles": "COC(=O)Nc1cc(C(F)(F)F)c(-c2nc(N3CCOCC3)c3cc(CN4CCN(S(C)(=O)=O)CC4)cn3n2)cn1", "note": "[CYH33, methyl (5-(6-((4-(methylsulfonyl)piperazin-1-yl)methyl)−4-morpholinopyrrolo[2,1-f][1,2,4]triazin-2-yl)−4-(trifluoromethyl)pyridin-2-yl)carbamate]", "values": [
      {"measurement": "FBG levels", "setting": "[1]", "value": "dose-dependent increase in FBG levels"},
      {"measurement": "IC50", "setting": "[2]", "value": "43 to 611", "unit": "nM"},
      {"measurement": "T/C ratio", "setting": "[3]; 12.5 mg/kg oral for 21 days", "value": "approximately 30%"},
      {"measurement": "inhibition rate (tumor growth)", "setting": "[3]; 12.5 mg/kg", "value": "> 67", "unit": "%"},
      {"measurement": "inhibition rate (tumor growth)", "setting": "[3]; 25 mg/kg", "value": "> 90", "unit": "%"},
      {"measurement": "inhibition rate (tumor growth)", "setting": "[3]; 50 mg/kg", "value": "> 95", "unit": "%"},
      {"measurement": "T/C%", "setting": "[4]; 50 mg/kg dose group, subcutaneous xenograft tumor model", "value": "< 20", "unit": "%"},
      {"measurement": "effective dose in nude mice", "setting": "[4]; oral for 21 days", "value": 12.5, "unit": "mg/kg"},
      {"measurement": "oxidative metabolites in human hepatocytes", "setting": "[5]", "value": "not detected"}
    ]}
  ]
}
